Measured values: ChEMBL document CHEMBL5356935, “Discovery of rigid biphenyl Plasmodium falciparum DHFR inhibitors using a fragment linking strategy” (RSC Med Chem, 2023)
Calls of active or inactive are those of the source. No cut-off for these calls is given here.

What was measured:
[1] = target: T1, Dihydrofolate reductase (Homo sapiens) (UniProt P00374); experiment: Inhibition of human DHFR at 500 uM by UV-Vis spectrometry analysis
T1 sequence (whole entry): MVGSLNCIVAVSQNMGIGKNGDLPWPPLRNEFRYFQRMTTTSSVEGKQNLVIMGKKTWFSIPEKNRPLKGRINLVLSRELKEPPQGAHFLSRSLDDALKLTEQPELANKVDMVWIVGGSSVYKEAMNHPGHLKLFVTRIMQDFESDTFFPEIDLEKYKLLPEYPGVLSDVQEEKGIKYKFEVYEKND

[2] = target: Bifunctional dihydrofolate reductase-thymidylate synthase (Plasmodium falciparum K1) (UniProt P13922); experiment: Inhibition of wild type Plasmodium falciparum DHFR using DHF as substrate at 500 uM in presence of NADPH by UV-Vis spectrometry analysis
Chain of Bifunctional dihydrofolate reductase-thymidylate synthase (Plasmodium falciparum K1) (P13922 whole entry, looked up): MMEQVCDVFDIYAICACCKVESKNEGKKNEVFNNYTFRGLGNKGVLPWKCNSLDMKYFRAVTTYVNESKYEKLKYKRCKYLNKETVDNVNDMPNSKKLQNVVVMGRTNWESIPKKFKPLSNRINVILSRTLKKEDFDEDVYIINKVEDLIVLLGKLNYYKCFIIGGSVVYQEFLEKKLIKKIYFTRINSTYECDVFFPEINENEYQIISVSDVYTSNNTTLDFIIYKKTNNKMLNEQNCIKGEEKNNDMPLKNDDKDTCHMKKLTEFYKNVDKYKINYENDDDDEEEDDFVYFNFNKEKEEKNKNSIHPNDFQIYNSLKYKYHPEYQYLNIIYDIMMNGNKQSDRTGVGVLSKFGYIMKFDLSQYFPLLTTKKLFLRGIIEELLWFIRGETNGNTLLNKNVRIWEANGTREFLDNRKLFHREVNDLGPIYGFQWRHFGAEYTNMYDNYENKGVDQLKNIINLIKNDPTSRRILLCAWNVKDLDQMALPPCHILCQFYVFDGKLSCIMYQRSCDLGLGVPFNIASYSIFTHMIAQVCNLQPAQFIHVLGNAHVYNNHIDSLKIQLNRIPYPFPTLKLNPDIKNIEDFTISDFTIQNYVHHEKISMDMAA

Plasmodium falciparum [3] = experiment: Inhibition of Plasmodium falciparum DHFR N51I/C59R/S108N/I164L quadruple mutant using DHF as substrate at 500 uM in presence of NADPH by UV-Vis spectrometry analysis
[4] = target: Bifunctional dihydrofolate reductase-thymidylate synthase (Plasmodium falciparum K1) (UniProt P13922); experiment: Binding affinity to Plasmodium falciparum DHFR assessed as faster binding and release kinetics by surface plasmon resonance analysis
Plasmodium falciparum [5] = experiment: Antiplasmodial activity against PYR-resistant Plasmodium falciparum V1/S encoding QM DHFR infected in human erythrocytes assessed as inhibition of parasite growth by [3H]-hypoxanthine incorporation assay; format: functional, organism-based; conditions: Erythrocyte
[6] = target: Bifunctional dihydrofolate reductase-thymidylate synthase (Plasmodium falciparum K1, UniProt P13922); experiment: Inhibition of wild type Plasmodium falciparum DHFR using DHF as substrate assessed as inhibition constant in presence of NADPH by UV-Vis spectrometry analysis
Chain of Bifunctional dihydrofolate reductase-thymidylate synthase (P13922 whole entry): as the sequence (P13922 whole entry, looked up) above

[7] = Metabolic stability in human liver microsomes assessed as intrinsic clearance measured upto 60 mins in presence of NADPH by LC-MS/MS analysis; format: ADME, Microsome; conditions: read-out: CLH
[8] = Kinetic solubility of the compound at pH 4.5 at 200 uM incubated for 2 hrs under shaking condition by HPLC analysis; format: physicochemical; conditions: buffer, read-out: Kinetic_solubility
[9] = Kinetic solubility of the compound at pH 2.0 at 200 uM incubated for 2 hrs under shaking condition by HPLC analysis; format: physicochemical; conditions: buffer, read-out: Kinetic_solubility
[10] = Inhibition of Plasmodium falciparum DHFR N51I/C59R/S108N/I164L quadruple mutant using DHF as substrate assessed as inhibition constant in presence of NADPH by UV-Vis spectrometry analysis
[11] = Metabolic stability in rat liver microsomes assessed as intrinsic clearance measured upto 60 mins in presence of NADPH by LC-MS/MS analysis; format: ADME, Microsome; conditions: read-out: CLH
[12] = Cytotoxicity against African green monkey Vero cells assessed as cell growth inhibition incubated for 72 hrs by sulforhodamine B assay; format: toxicity, cell-based, Chlorocebus sabaeus
Plasmodium falciparum [13] = experiment: Antiplasmodial activity against PYR-sensitive Plasmodium falciparum TM4/8.2 encoding WT DHFR infected in human erythrocytes assessed as inhibition of parasite growth by [3H]-hypoxanthine incorporation assay; format: functional, organism-based; conditions: TM4/8.2, Erythrocyte
Dihydrofolate reductase = target: T2, Dihydrofolate reductase (Homo sapiens, UniProt P00374); experiment: Inhibition of human DHFR using DHF as substrate assessed as inhibition constant in presence of NADPH by UV-Vis spectrometry analysis
T2 sequence (P00374 whole entry): T1 sequence (whole entry)

[14] = Kinetic solubility of the compound at pH 6.5 at 200 uM incubated for 2 hrs under shaking condition by HPLC analysis; format: physicochemical; conditions: buffer, read-out: Kinetic_solubility
[15] = Distribution coefficient, log D of compound in n-octanol and saturated PBS at pH 7.4 at 100 uM incubated for 2 hrs under shaking condition by HPLC analysis; format: physicochemical
[16] = Kinetic solubility of the compound at pH 7.4 at 200 uM incubated for 2 hrs under shaking condition by HPLC analysis; format: physicochemical; conditions: buffer, read-out: Kinetic_solubility
[17] = target: Bifunctional dihydrofolate reductase-thymidylate synthase (Plasmodium falciparum K1) (UniProt P13922); experiment: Binding affinity to Plasmodium falciparum DHFR assessed as binding constant (koff) by surface plasmon resonance analysis
Plasmodium falciparum [18] = experiment: Binding affinity to Plasmodium falciparum apo-DHFR N51I/C59R/S108N/I164L quadruple mutant assessed as change in melting temperature by […] analysis
[19] = target: Bifunctional dihydrofolate reductase-thymidylate synthase (Plasmodium falciparum K1) (UniProt P13922); experiment: Binding affinity to Plasmodium falciparum DHFR assessed as binding constant (kon) by surface plasmon resonance analysis
Plasmodium falciparum [20] = experiment: Inhibition of Plasmodium falciparum DHFR N51I/C59R/S108N/I164L quadruple mutant using DHF as substrate at 500 uM in presence of NADPH by UV-Vis spectrometry analysis relative to control
[21] = target: Bifunctional dihydrofolate reductase-thymidylate synthase (Plasmodium falciparum K1) (UniProt P13922); experiment: Inhibition of wild type Plasmodium falciparum DHFR using DHF as substrate at 500 uM in presence of NADPH by UV-Vis spectrometry analysis relative to control
Plasmodium falciparum [22] = experiment: Binding affinity to Plasmodium falciparum DHFR N51I/C59R/S108N/I164L quadruple mutant assessed as change in melting temperature in presence of NADPH by […] analysis
Plasmodium falciparum [23] = experiment: Inhibition of Plasmodium falciparum DHFR N51I/C59R/S108N/I164L quadruple mutant assessed as fold change in inhibition in presence of 2,4-diamino-6-ethylpyrimidin-5-ol

For `O=C(O)c1ccccc1-c1ccncc1`, the inhibition [1] was “inactive”, the inhibition [2] was “inactive” and the inhibition (Plasmodium falciparum [3]) was “inactive”. The Activity [4] was “Active”.

For `CCc1nc(N)nc(N)c1Cc1ccc(-c2ccc(C(=O)OC)cc2)cc1.Cl`, the IC50 (Plasmodium falciparum [5]) was over 25000 nM, the Ki [6] was 1.06 nM and the microsomal CLint [7] was 459 µL/min/mg. The solubility kinetic at 2 h, 200 µM [8] was 132 µM, the solubility kinetic at 2 h, 200 µM [9] was 154 µM and the Ki [10] was 41.7 nM. The microsomal CLint [11] was 764 µL/min/mg, the IC50 at 72 h [12] was over 25000 nM and the IC50 (Plasmodium falciparum [13]) was 8150 nM. The Ki (Dihydrofolate reductase) was 423 nM, the solubility kinetic at 2 h, 200 µM [14] was under 4 µM and the logD at 2 h, 100 µM [15] was 3.49. It also gave a solubility kinetic at 2 h, 200 µM [16] of under 4 µM.

In the case of `O=C(O)c1ccc(-c2ccccc2)cn1`, the inhibition [1] is reported as “inactive”, the inhibition [2] is reported as “inactive” and the K [17] is reported as 0.037 s⁻¹. For the same compound, the ΔTm (Plasmodium falciparum [18]) was -1.2 °C, the K [19] was 24.5 M⁻¹ s⁻¹ and the inhibition (Plasmodium falciparum [20]) was 7%.

With `O=C(O)c1ccc(-c2ccncc2)cc1` the inhibition [1] was “inactive”, the inhibition [21] was 2.93% and the K [17] was 0.001 s⁻¹. It also gave a K [19] of 16.4 M⁻¹ s⁻¹ and an inhibition (Plasmodium falciparum [20]) of 10.1%.

For `O=C(O)c1cccc(-c2ccncc2)c1`, the inhibition [1] was “inactive”, the ΔTm (Plasmodium falciparum [22]) was 0.8 °C and the inhibition [2] was “inactive”. For the same compound, the K [19] was 6.41 M⁻¹ s⁻¹ and the inhibition (Plasmodium falciparum [20]) was 19.5%.

With `O=C(O)c1ccccc1-c1ccco1` the inhibition [1] was “inactive”, the inhibition [21] was 6.5% and the K [17] was 0.012 s⁻¹. For the same compound, the K [19] was 40 M⁻¹ s⁻¹ and the inhibition (Plasmodium falciparum [20]) was 7.7%.

`COc1cc(Cc2cnc(N)nc2N)cc(OC)c1OC` [TRIMETHOPRIM] showed a Ki [10] of 49.1 nM.

Compound `CCc1nc(N)nc(N)c1Cc1cccc(-c2ccc(C(=O)O)cc2)c1.Cl.Cl` has an IC50 (Plasmodium falciparum [5]) of over 50000 nM, a Ki [6] of 0.48 nM and a solubility kinetic at 2 h, 200 µM [8] of 19.2 µM. For the same compound, the solubility kinetic at 2 h, 200 µM [9] was 188 µM, the Ki [10] was 3.3 nM and the IC50 at 72 h [12] was over 50000 nM. It also gave an IC50 (Plasmodium falciparum [13]) of 8550 nM, a Ki (Dihydrofolate reductase) of 22 nM and a solubility kinetic at 2 h, 200 µM [14] of 19.2 µM. The solubility kinetic at 2 h, 200 µM [16] was 30.8 µM.

With `O=C(O)c1ccc(-c2cccnc2)cc1` the inhibition [1] was “inactive”, the inhibition [21] was 8.5% and the K [17] was 0.001 s⁻¹. It also gave a K [19] of 4.18 M⁻¹ s⁻¹ and an inhibition (Plasmodium falciparum [20]) of 2.4%.

For `CCc1nc(N)nc(N)c1Cc1cccc(-c2cccc(C(=O)OC)c2)c1`, the IC50 (Plasmodium falciparum [5]) was 40000 nM, the Ki [6] was 0.21 nM and the Ki [10] was 0.58 nM. It also gave an IC50 at 72 h [12] of 21700 nM, an IC50 (Plasmodium falciparum [13]) of 4950 nM and a Ki (Dihydrofolate reductase) of 19.4 nM. For the same compound, the logD at 2 h, 100 µM [15] was 3.2.

With `O=C(O)c1ccc(-c2cnco2)cc1` the inhibition [1] was “inactive”, the inhibition [2] was “inactive” and the K [17] was 0.013 s⁻¹. It also gave a K [19] of 5.26 M⁻¹ s⁻¹, a fold change (FC) (Plasmodium falciparum [23]) of 2.6 and an inhibition (Plasmodium falciparum [20]) of 11.3%.

For `Cc1ccc(-c2ccc(C(=O)O)cc2)o1`, the inhibition [1] was “inactive”, the inhibition [21] was 27.4% and the ΔTm (Plasmodium falciparum [22]) was -2.3 °C. The K [17] was 0.019 s⁻¹, the K [19] was 25.4 M⁻¹ s⁻¹ and the inhibition (Plasmodium falciparum [20]) was 23.1%.

For `Cc1oc(-c2ccccc2)cc1C(=O)O`, the inhibition [1] was “inactive”, the inhibition [2] was “inactive” and the K [17] was 0.014 s⁻¹. The inhibition (Plasmodium falciparum [3]) was “inactive” and the K [19] was 6.06 M⁻¹ s⁻¹.

For `O=C(O)c1cccc(-c2cccnc2)c1`, the inhibition [1] was “inactive”, the inhibition [2] was “inactive” and the K [17] was 0.002 s⁻¹. For the same compound, the K [19] was 16.3 M⁻¹ s⁻¹ and the inhibition (Plasmodium falciparum [20]) was 3.89%.
